Test results reported in US20250049937A1, “NOVEL AURISTATIN ANALOGS AND IMMUNOCONJUGATES THEREOF” (priority 2021, published 2025).

Test system: HCC1954 breast ductal carcinoma cells
Test: HCC1954 5-day cell viability assay (Cell Titer Glo 2.0)
Type: cell-based
Conditions: Homo sapiens, HCC1954, 120 h, read-out: IC50 (HCC1954 5-Day Assay)
Protocol: (§1) *Biological assay protocol: HCC1954 breast ductal carcinoma or SK-BR-3 cells (ATCC, Manassas, VA, USA) were seeded into 384-well white-walled culture plates and allowed to adhere for 2-4 hours. Cells were then treated with test articles at least in duplicate by addition of 5-fold serially diluted test articles prepared at 2× final concentration and incubated at 37° C. for 120 hours. Cell viability following treatment was determined by Cell Titer Glo 2.0 Assay (Promega, Madison, WI, USA) and normalized to non-treated controls. Dose-response relationships were analyzed using GraphPad Prism (La Jolla, CA, USA), and IC50 values were derived from non-linear regression analyses using a 4-parameter logistic equation
as §1, with “HCC1954” for “*Biological assay protocol: HCC1954”, “carcinoma” for “carcinoma or SK-BR-3”, “treated” for “treated with test articles”, “equation.” for “equation”

CC[C@H](C)[C@@H]([C@@H](CC(=O)N1CCC[C@H]1[C@H](OC)[C@@H](C)C(=O)N(C)[C@H](CC#N)Cc1cccc(N)c1)OC)N(C)C(=O)[C@@H](NC(=O)[C@@H](C)N(C)C)C(C)C [Compound 9, (S)—N-((3R,4S,5S)-1-((S)-2-((1R,2R)-3-(((S)-1-(3-aminophenyl)-3-cyanopropan-2-yl)(methyl)amino)-1-methoxy-2-methyl-3-oxopropyl)pyrrolidin-1-yl)-3-methoxy-5-methyl-1-oxoheptan-4-yl)-2-((R)-2-(dimethylamino)propanamido)-N,3-dimethylbutanamide]
IC50: 0.58 nM

CC[C@H](C)[C@@H]([C@@H](CC(=O)N1CCC[C@H]1[C@H](OC)[C@@H](C)C(=O)N[C@H](CC#N)Cc1cccc(N)c1)OC)N(C)C(=O)[C@@H](NC(=O)[C@@H](C)N(C)C)C(C)C [Compound 5, (S)—N-((3R,4S,5S)-1-((S)-2-((1R,2R)-3-(((S)-1-(3-aminophenyl)-3-cyanopropan-2-yl)amino)-1-methoxy-2-methyl-3-oxopropyl)pyrrolidin-1-yl)-3-methoxy-5-methyl-1-oxoheptan-4-yl)-2-((R)-2-(dimethylamino)propanamido)-N,3-dimethylbutanamide]
IC50: 0.37 nM

CC[C@H](C)[C@@H]([C@@H](CC(=O)N1CCC[C@H]1[C@H](OC)[C@@H](C)C(=O)N[C@H](CC#N)Cc1cccc(N)c1)OC)N(C)C(=O)[C@@H](NC(=O)[C@@H](C(C)C)N(C)C)C(C)C [Compound 3, (S)—N-((3R,4S,5S)-1-((S)-2-((1R,2R)-3-(((S)-1-(3-aminophenyl)-3-cyanopropan-2-yl)amino)-1-methoxy-2-methyl-3-oxopropyl)pyrrolidin-1-yl)-3-methoxy-5-methyl-1-oxoheptan-4-yl)-2-((R)-2-(dimethylamino)-3-methylbutanamido)-N,3-dimethylbutanamide]
IC50: 0.12 nM

CC[C@H](C)[C@@H]([C@@H](CC(=O)N1CCC[C@H]1[C@H](OC)[C@@H](C)C(=O)N[C@H](CC#N)Cc1cccc(N)c1)OC)N(C)C(=O)[C@@H](NC(=O)[C@H](C)N(C)C)C(C)C [Compound 4, (S)—N-((3R,4S,5S)-1-((S)-2-((1R,2R)-3-(((S)-1-(3-aminophenyl)-3-cyanopropan-2-yl)amino)-1-methoxy-2-methyl-3-oxopropyl)pyrrolidin-1-yl)-3-methoxy-5-methyl-1-oxoheptan-4-yl)-2-((S)-2-(dimethylamino)propanamido)-N,3-dimethylbutanamide]
IC50: 0.49 nM

CC[C@H](C)[C@@H]([C@@H](CC(=O)N1CCC[C@H]1[C@H](OC)[C@@H](C)C(=O)N(C)[C@H](CC#N)Cc1cccc(N)c1)OC)N(C)C(=O)[C@@H](NC(=O)[C@H](C)N(C)C)C(C)C [Compound 8, (S)—N-((3R,4S,5S)-1-((S)-2-((1R,2R)-3-(((S)-1-(3-aminophenyl)-3-cyanopropan-2-yl)(methyl)amino)-1-methoxy-2-methyl-3-oxopropyl)pyrrolidin-1-yl)-3-methoxy-5-methyl-1-oxoheptan-4-yl)-2-((S)-2-(dimethylamino)propanamido)-N,3-dimethylbutanamide]
IC50: 0.22 nM

CC[C@H](C)[C@@H]([C@@H](CC(=O)N1CCC[C@H]1[C@H](OC)[C@@H](C)C(=O)N(C)[C@H](CC#N)Cc1cccc(N)c1)OC)N(C)C(=O)[C@@H](NC(=O)[C@H](C(C)C)N(C)C)C(C)C [Compound 7, (S)—N-((3R,4S,5S)-1-((S)-2-((1R,2R)-3-(((S)-1-(3-aminophenyl)-3-cyanopropan-2-yl)(methyl)amino)-1-methoxy-2-methyl-3-oxopropyl)pyrrolidin-1-yl)-3-methoxy-5-methyl-1-oxoheptan-4-yl)-2-((S)-2-(dimethylamino)-3-methylbutanamido)-N,3-dimethylbutanamide]
IC50: 0.07 nM

CC[C@H](C)[C@@H]([C@@H](CC(=O)N1CCC[C@H]1[C@H](OC)[C@@H](C)C(=O)N[C@H](CC#N)Cc1cccc(N)c1)OC)N(C)C(=O)[C@@H](NC(=O)CN(C)C)C(C)C [Compound 6, (S)—N-((3R,4S,5S)-1-((S)-2-((1R,2R)-3-(((S)-1-(3-aminophenyl)-3-cyanopropan-2-yl)amino)-1-methoxy-2-methyl-3-oxopropyl)pyrrolidin-1-yl)-3-methoxy-5-methyl-1-oxoheptan-4-yl)-2-(2-(dimethylamino)acetamido)-N,3-dimethylbutanamide]
IC50: 0.78 nM

CC[C@H](C)[C@@H]([C@@H](CC(=O)N1CCC[C@H]1[C@H](OC)[C@@H](C)C(=O)N[C@H](CC#N)Cc1ccc(N)cc1)OC)N(C)C(=O)[C@@H](NC(=O)[C@H](C(C)C)N(C)C)C(C)C [Compound 1, (S)—N-((3R,4S,5S)-1-((S)-2-((1R,2R)-3-(((S)-1-(4-aminophenyl)-3-cyanopropan-2-yl)amino)-1-methoxy-2-methyl-3-oxopropyl)pyrrolidin-1-yl)-3-methoxy-5-methyl-1-oxoheptan-4-yl)-2-((S)-2-(dimethylamino)-3-methylbutanamido)-N,3-dimethylbutanamide]
IC50: 0.31 nM

CC[C@H](C)[C@@H]([C@@H](CC(=O)N1CCC[C@H]1[C@H](OC)[C@@H](C)C(=O)N[C@H](CC#N)Cc1cccc(N)c1)OC)N(C)C(=O)[C@@H](NC(=O)[C@H](C(C)C)N(C)C)C(C)C [Compound 2, (S)—N-((3R,4S,5S)-1-((S)-2-((1R,2R)-3-(((S)-1-(3-aminophenyl)-3-cyanopropan-2-yl)amino)-1-methoxy-2-methyl-3-oxopropyl)pyrrolidin-1-yl)-3-methoxy-5-methyl-1-oxoheptan-4-yl)-2-((S)-2-(dimethylamino)-3-methylbutanamido)-N,3-dimethylbutanamide]
IC50: 0.37 nM
